In publication PMC11359702, “Synthesis and Biochemical Evaluation of Ethanoanthracenes and Related Compounds: Antiproliferative and Pro-Apoptotic Effects in Chronic Lymphocytic Leukemia (CLL)” (Pharmaceuticals, 2024):
pIC50: −log10 of the molar value.

What was measured:
HG-3 cells = experiment: alamarBlue cell viability assay; conditions: Homo sapiens, HG-3, 24 h; for pIC50: read-out: HG-3 IC50; for viability at 10 µM: read-out: cell viability, HG-3, 10 µM, 24 h, vehicle = 100%
[1] = tested on: HG-3 and PGA-1 cell lines; experiment: alamarBlue cell viability assay, mean of both CLL cell lines; format: cell-based, human; conditions: Homo sapiens, CLL cell; mean of HG-3 and PGA-1
PGA-1 cells = experiment: alamarBlue cell viability assay; conditions: Homo sapiens, 24 h; for pIC50: read-out: PGA-1 IC50
breast cancer cell lines = experiment: NCI-60 five-dose assay, breast cancer cell lines; format: cell-based, human; conditions: Homo sapiens; range over breast cancer cell lines
Description: (§1) A number of our most promising compounds identified through preliminary cell viability testing (23c, 23d, 23f, 23h, 23l, 23m, 23n, 23o, 24f, 24l, 25n and 26n) were selected for NCI drug screening in the 60-cell-line panel. The panel includes nine subcategories based on cancer tissue types, which include leukemia, ovarian, central nervous system, breast, lung, prostate, skin, renal and colon cancer. The compounds were initially assessed in a one-dose assay at a fixed treatment concentration of 10 µM. The compounds selected for further investigation were progressed to a five-dose assay across the concentration ranges of 0.01, 0.1, 1, 10 and 100 µM [72]. The endpoints assessed in the screening protocol were GI50, TGI and LC50 [72].

leukemia cell panel = experiment: NCI-60 five-dose assay, leukemia cell panel mean; format: cell-based, human; conditions: Homo sapiens; mean across the six leukemia cell lines
RPMI-8226 = experiment: NCI-60 five-dose assay; format: cell-based, human
MOLT-4 = experiment: NCI-60 five-dose assay; format: cell-based, human
melanoma cell lines = experiment: NCI-60 five-dose assay, melanoma cell lines; format: cell-based, human; conditions: Homo sapiens; range over melanoma cell lines
Description: as §1

NCI-H460 = experiment: NCI-60 five-dose assay; format: cell-based, human; conditions: Homo sapiens
Description: as §1

NCI-H552 = experiment: NCI-60 five-dose assay; format: cell-based, human; conditions: Homo sapiens
Description: as §1

UO-31 = experiment: NCI-60 five-dose assay; format: cell-based, human; conditions: Homo sapiens
Description: as §1

HCT-15 = experiment: NCI-60 five-dose assay; format: cell-based, human; conditions: Homo sapiens
Description: as §1

SNB-19 = experiment: NCI-60 five-dose assay; format: cell-based, human; conditions: Homo sapiens
Description: as §1

BT-549 = experiment: NCI-60 five-dose assay; format: cell-based, human; conditions: Homo sapiens
Description: as §1

UACC-62 = experiment: NCI-60 five-dose assay; format: cell-based, human; conditions: Homo sapiens
Description: as §1

SF539 = experiment: NCI-60 five-dose assay; format: cell-based, human; conditions: Homo sapiens, SF-539
Description: as §1

PC-3 = experiment: NCI-60 five-dose assay; format: cell-based, human; conditions: Homo sapiens
Description: as §1

SF-268 = experiment: NCI-60 five-dose assay; format: cell-based, human; conditions: Homo sapiens
Description: as §1

UACC-257 = experiment: NCI-60 five-dose assay; format: cell-based, human; conditions: Homo sapiens
Description: as §1

RXF 393 = experiment: NCI-60 five-dose assay; format: cell-based, human; conditions: Homo sapiens
Description: as §1

ACHN = experiment: NCI-60 five-dose assay; format: cell-based, human; conditions: Homo sapiens
Description: as §1

CAKI-1 = experiment: NCI-60 five-dose assay; format: cell-based, human; conditions: Homo sapiens
Description: as §1

SW-620 = experiment: NCI-60 five-dose assay; format: cell-based, human; conditions: Homo sapiens
Description: as §1

TK-10 = experiment: NCI-60 five-dose assay; format: cell-based, human; conditions: Homo sapiens
Description: as §1

LOX IMV1 = experiment: NCI-60 five-dose assay; format: cell-based, human; conditions: Homo sapiens
Description: as §1

SK-MEL-28 = experiment: NCI-60 five-dose assay; format: cell-based, human; conditions: Homo sapiens
Description: as §1

MCF-7 = experiment: NCI-60 five-dose assay; format: cell-based, human; conditions: Homo sapiens, MCF7
Description: as §1

OVCAR-5 = experiment: NCI-60 five-dose assay; format: cell-based, human; conditions: Homo sapiens
Description: as §1

HOP-92 = experiment: NCI-60 five-dose assay; format: cell-based, human; conditions: Homo sapiens
Description: as §1

MALME-3M = experiment: NCI-60 five-dose assay; format: cell-based, human; conditions: Homo sapiens, Malme-3M
Description: as §1

EKVX = experiment: NCI-60 five-dose assay; format: cell-based, human; conditions: Homo sapiens
Description: as §1

HS 578T = experiment: NCI-60 five-dose assay; format: cell-based, human; conditions: Homo sapiens
Description: as §1

NCI-H23 = experiment: NCI-60 five-dose assay; format: cell-based, human; conditions: Homo sapiens
Description: as §1

IGROV1 = experiment: NCI-60 five-dose assay; format: cell-based, human; conditions: Homo sapiens, IGROV-1
Description: as §1

HOP-62 = experiment: NCI-60 five-dose assay; format: cell-based, human; conditions: Homo sapiens
Description: as §1

MDA-MB-468 = experiment: NCI-60 five-dose assay; format: cell-based, human; conditions: Homo sapiens
Description: as §1

MDA-MB-231/ATCC = experiment: NCI-60 five-dose assay; format: cell-based, human; conditions: Homo sapiens
Description: as §1

SK-OV-3 = experiment: NCI-60 five-dose assay; format: cell-based, human; conditions: Homo sapiens
Description: as §1

A549/ATCC = experiment: NCI-60 five-dose assay; format: cell-based, human; conditions: Homo sapiens
Description: as §1

HCT-2998 = experiment: NCI-60 five-dose assay; format: cell-based, human; conditions: Homo sapiens
Description: as §1

NCI-H226 = experiment: NCI-60 five-dose assay; format: cell-based, human; conditions: Homo sapiens
Description: as §1

NCI/ADR-RES = experiment: NCI-60 five-dose assay; format: cell-based, human; conditions: Homo sapiens
Description: as §1

M14 = experiment: NCI-60 five-dose assay; format: cell-based, human; conditions: Homo sapiens
Description: as §1

OVCAR-4 = experiment: NCI-60 five-dose assay; format: cell-based, human; conditions: Homo sapiens
Description: as §1

KM12 = experiment: NCI-60 five-dose assay; format: cell-based, human; conditions: Homo sapiens
Description: as §1

HT29 = experiment: NCI-60 five-dose assay; format: cell-based, human
Description: as §1

HCT-116 = experiment: NCI-60 five-dose assay; format: cell-based, human; conditions: Homo sapiens
Description: as §1

O=C(C=CC12c3ccccc3C(c3ccccc31)C1C(=O)NC(=O)C12)c1ccc(Br)cc1 (centres unmarked) [Compound 23a, 9-(E)-3-(4-Bromophenyl)-3-oxoprop-1-en-1-yl)-9,10-dihydro-9,10-[3,4]epipyrroloanthracene-12,14-dione]
pIC50 (HG-3 cells): 5.57
viability at 10 µM (HG-3 cells): 0.5%
pIC50 [1]: 5.63
pIC50 (PGA-1 cells): 5.71
viability at 10 µM (PGA-1 cells; read-out: cell viability): 3%

O=C(C=CC12c3ccccc3C(c3ccccc31)C1C(=O)N(c3ccc(Cl)cc3)C(=O)C12)c1ccccn1 (centres unmarked) [Compound 25n, (E)-13-(4-Chlorophenyl)-9-(3-oxo-3-(pyridin-2-yl)prop-1-en-1-yl)-9,10-dihydro-9,10-[3,4]epipyrroloanthracene-12,14-dione]
GI50 (breast cancer cell lines): 295 to 627 nM
GI50 (leukemia cell panel): 290 nM
GI50 (RPMI-8226; Homo sapiens, RPMI-8226, RPMI-8226): 250 nM
GI50 (RPMI-8226; RPMI-8226): 252 nM
pIC50 (HG-3 cells): 5.88
viability at 1 µM (HG-3 cells; read-out: cell viability, HG-3, 1 µM, 24 h, vehicle = 100%): 30%
viability at 10 µM (HG-3 cells): 2%
pIC50 [1]: 5.96
GI50 (MOLT-4; Homo sapiens, MOLT-4, MOLT-4): 320 nM
GI50 (MOLT-4; MOLT-4): 366 nM
GI50 (melanoma cell lines): 194 to 1080 nM
GI50 (NCI-H460): 241 nM
GI50 (NCI-H552): 331 nM
GI50 (UO-31): 208 nM
GI50 (HCT-15): 213 nM
GI50 (SNB-19): 425 nM
GI50 (BT-549): 295 nM
GI50 (UACC-62): 400 nM
GI50 (SF539): 316 nM
GI50 (PC-3): 436 nM
GI50 (SF-268): 699 nM
GI50 (UACC-257): 496 nM
GI50 (RXF 393): 222 nM
GI50 (ACHN): 299 nM
GI50 (CAKI-1): 1070 nM
GI50 (SW-620): 299 nM
GI50 (TK-10): 1460 nM
GI50 (LOX IMV1): 194 nM
GI50 (SK-MEL-28): 455 nM
GI50 (MCF-7): 326 nM
GI50 (OVCAR-5): 568 nM
GI50 (HOP-92): 1190 nM
GI50 (MALME-3M): 316 nM
GI50 (EKVX): 491 nM
GI50 (HS 578T): 458 nM
GI50 (NCI-H23): 446 nM
GI50 (IGROV1): 236 nM
GI50 (HOP-62): 587 nM
GI50 (MDA-MB-468): 627 nM
GI50 (MDA-MB-231/ATCC): 463 nM
GI50 (SK-OV-3): 3300 nM
GI50 (A549/ATCC): 390 nM
GI50 (HCT-2998): 335 nM
GI50 (NCI-H226): 293 nM
GI50 (NCI/ADR-RES): 356 nM
GI50 (M14): 344 nM
GI50 (OVCAR-4): 764 nM
GI50 (KM12): 344 nM
GI50 (HT29; Homo sapiens, HT-29, HT29): 335 nM
pIC50 (HT29; chemoresistant HT-29 human colorectal adenocarcinoma cell line): 6.47
GI50 (HCT-116): 212 nM
pIC50 (PGA-1 cells): 6.06
viability at 1 µM (PGA-1 cells; read-out: cell viability): 25%
viability at 10 µM (PGA-1 cells; read-out: cell viability): 7%
